Experimental data: publication PMC12640663 (Chemmedchem, 2025)
Several values for one entry are separate records, joined by “and”; a condition that tells them apart may be missing. Identical values can stand only once. Entries after “also recorded” stand apart in the source; their conditions may differ. Like-named read-outs stand apart in the source and are kept apart here. Each block holds one compound with its values, some of them ahead of it.

Legend:
[1] = molecular target: T1, TCPTP (Homo sapiens, UniProt P17706); assay: T‐cell protein tyrosine phosphatase (TCPTP) activity assay (p‐NPP); format: biochemical; details: for TCPTP inhibition (in words): up to 100 μM
T1 sequence (P17706 1-415): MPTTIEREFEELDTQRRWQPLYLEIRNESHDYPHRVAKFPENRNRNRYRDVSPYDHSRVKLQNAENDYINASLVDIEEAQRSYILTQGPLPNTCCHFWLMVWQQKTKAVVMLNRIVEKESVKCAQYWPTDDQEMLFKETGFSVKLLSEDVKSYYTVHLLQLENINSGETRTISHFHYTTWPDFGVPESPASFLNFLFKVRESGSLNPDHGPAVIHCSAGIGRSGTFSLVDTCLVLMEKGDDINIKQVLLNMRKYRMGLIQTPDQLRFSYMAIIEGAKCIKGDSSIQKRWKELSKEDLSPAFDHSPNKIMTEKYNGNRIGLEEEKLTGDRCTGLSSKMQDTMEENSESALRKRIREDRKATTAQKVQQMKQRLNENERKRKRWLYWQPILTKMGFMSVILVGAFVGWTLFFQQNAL
Procedure: The effectiveness and safety of protein tyrosine phosphatase (PTP) inhibitors depend on their specificity. PTP1B and TCPTP serve different functions: PTP1B is involved in metabolism and cancer, while TCPTP regulates immune function. Inhibiting TCPTP could impact the immune response, whereas inhibiting PTP1B may benefit metabolic diseases without these side effects.^[ [20] ^, [34] ^, [35] ^] […] These compounds were assessed up to 100 μM (Table 1).
TCPTP enzyme reported by Mendoza et al. was used for this assay. […] Aliquots of 0–10 µL (triplicate) of the newly synthesized compounds, positive control, and solvent were taken. These were incubated with 85 µL of enzyme solution (Tris, 50 mM, pH 6.8, TCPTP) and 5 µL of substrate (p‐NPP, 10 mM) for 15 min at 37 °C.

[2] = test system: hPTP1B1−322; set-up: method as in PMID 37628991; details: previous research, cited from earlier work; for IC50: read-out: IC50 against hPTP1B1−322; for Ki: read-out: K i against hPTP1B1−322
[3] = molecular target: T2, hPTP1B1–400 (Homo sapiens, UniProt P18031); assay: Kinetic studies of PTP1B (hPTP1B1–400); details: for Inhibition type: hPTP1B1–400; for K m / V max / Ki: ± S.D; for K m / V max: hPTP1B1–400 with inhibitor; for Ki: K i, hPTP1B1–400, p‐NPP 0.1 to 0.5 mM;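 as to all read-outs here: enzyme kinetics run across a range of substrate and inhibitor levels, control lacking inhibitor, triplicate runs, parameters derived by fitting Michaelis–Menten style equations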
T2 sequence (P18031 1-400): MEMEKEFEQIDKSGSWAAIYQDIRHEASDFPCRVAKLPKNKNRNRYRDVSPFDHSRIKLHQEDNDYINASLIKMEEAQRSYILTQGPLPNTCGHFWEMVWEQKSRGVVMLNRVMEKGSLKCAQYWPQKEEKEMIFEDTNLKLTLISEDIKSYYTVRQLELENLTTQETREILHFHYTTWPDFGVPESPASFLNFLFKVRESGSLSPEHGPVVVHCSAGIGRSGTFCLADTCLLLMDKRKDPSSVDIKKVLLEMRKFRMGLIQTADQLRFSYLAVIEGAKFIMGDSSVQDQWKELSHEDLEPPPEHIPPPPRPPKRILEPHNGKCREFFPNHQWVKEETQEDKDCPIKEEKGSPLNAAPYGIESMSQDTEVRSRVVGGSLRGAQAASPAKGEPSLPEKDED
Procedure: Kinetic analyses were performed at various substrate and inhibitor concentrations.
The negative control was prepared with the enzyme and substrate in the absence of the inhibitor. Experiments were conducted in triplicate.^[ [30] ^] […] The kinetic parameters of enzyme inhibition, K m and V max, were determined by fitting the data to the Michaelis‐Menten model, Equation (3) (OriginPro 2018 (64‐bit) SR1). (3) y=VmaxX/Km+X´ where V max: is the maximum velocity, X: is the inhibitor concentration, K m: Michaelis constant.
(4) y=Vmax(X)/(Km/1+I/Ki)+X where V max: maximum velocity, X: substrate concentration, I: inhibitor concentration, K m: Michaelis constant, K i : inhibition constant.

[4] = molecular target: T2, hPTP1B1–400; assay: PTP1B activity assay, long form hPTP1B1–400 (p‐NPP); format: biochemical; set-up: hPTP1B1–400 (the long form with an intrinsically disordered C‐terminal regulatory domain); details: for IC50: ± S.D, p‐NPP substrate, 15 min at 37 °C, triplicate
Procedure: (§1) The inhibitory activity of PTP1B was assessed using two enzyme variants: hPTP1B1–285 (the short form with an N‐terminal catalytic domain) and hPTP1B1–400 (the long form with an intrinsically disordered C‐terminal regulatory domain). […] According to Coronel‐Tovar et al., the disordered region of the C‐terminal domain plays a crucial role in modulating PTP1B enzymatic activity.^[ [30] ^] […] Different concentrations of the compounds were evaluated to determine their IC50 values (Table 1 ).
(§2) Recombinant human protein tyrosine phosphatase 1B, consisting of 400 and 285 amino acid residues, was used.^[ [35] ^] […] Aliquots of 0–10 µL of the test compounds (triplicate) were taken and incubated for 15 min at 37 °C with 85 µL of Tris buffer solution (50 mM, pH 6.8) containing PTP1B enzyme and 5 µL of p‐nitrophenyl phosphate substrate (p‐NPP, 10 mM). Absorbance was then measured at a wavelength of 405 nm. The inhibitory activity was determined according to Equation (1). (1) % PTP1B=(A405b/A405c)×100 where % PTP1B: Is the percentage of inhibition. A 405c: Is the corrected absorbance of the blank (A 405initial–A 405final). A 405b: Is the corrected absorbance of the compounds (A 405control–A 405compound).

[5] = molecular target: T3, hPTP1B1–285 (Homo sapiens, UniProt P18031); assay: PTP1B activity assay, short form hPTP1B1–285 (p‐NPP); format: biochemical; details: ± S.D; p‐NPP substrate, 15 min at 37 °C
T3 construct: hPTP1B1–285 (the short form with an N‐terminal catalytic domain)
T3 sequence (P18031 1-285): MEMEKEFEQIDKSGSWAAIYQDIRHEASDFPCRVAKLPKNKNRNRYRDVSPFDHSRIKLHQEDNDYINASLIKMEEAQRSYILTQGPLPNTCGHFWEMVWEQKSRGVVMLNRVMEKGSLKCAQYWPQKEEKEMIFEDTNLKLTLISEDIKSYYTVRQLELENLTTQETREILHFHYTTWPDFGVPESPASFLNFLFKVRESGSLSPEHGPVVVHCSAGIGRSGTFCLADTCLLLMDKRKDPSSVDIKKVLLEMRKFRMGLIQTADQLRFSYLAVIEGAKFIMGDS
Procedure: as §1
To do so, these terpenoids were tested against hPTP1B1–285.
as §2

[6] = test system: HepG2 cells; assay: Cell viability with crystal violet; format: cell-based; details: 1 and 25 µM, 24 h
Procedure: (§3) Subsequently, we evaluated the same compounds in a HepG2 insulin‐resistant model.
A 96‐well plate was seeded with 3,000 cells per well and incubated for 24 h. Afterward, the cells were treated with test compounds at various concentrations for 24 h. After incubation, the media was removed, and 100 µL of 1% glutaraldehyde was added for 15 min. Afterward, the liquid was removed, and 50 µL of 0.5% crystal violet (dissolved in 25% methanol) was added for 30 min. The crystal violet staining solution was removed, and the plate was thoroughly washed with tap water. The precipitate was dissolved in a 10% acetic acid solution and mixed for 15 min. The absorbance was then measured at 590 nm using a plate reader (xMark Microplate Spectrophotometer—Bio‐Rad).
Figure S59. Cell viability assessment by crystal violet staining. HepG2 cell viability was evaluated
after treatment with the respective compounds at concentrations of 1 and 25 µM for 24 hours. Bar
graphs represent mean ± SEM.

[7] = test system: PTP1B; details: cited from earlier work
[8] = test system: insulin‐resistant HepG2 cells; assay: Insulin‐resistant HepG2 model, western blotting of PTP1B and pAKT; format: cell-based; details: 24 h, western blot
Procedure: as §3
Bar graphs represent the mean ± SEM of normalized values. The control levels were set at 1. T‐test significance *p < 0.05, when compared with control (DMSO). Statistical analyses were carried out using GraphPad Prism 8.0.
For the resistant insulin model using HepG2 cells, the following reagents were acquired from Sigma–Aldrich (Toluca, MEX, Mexico, and St. Louis, MO, USA): Insulin (I2643), Dulbecco's modified eagle's medium (DMEM) low glucose media (D5523), Trypsin‐EDTA solution (T4174), antibiotic‐antimycotic solution(A5955), dimethyl sulfoxide (DMSO‐D8418), sodium deoxycholate (D6750), triethylammonium bicarbonate buffer 1 M (TEAB‐T7408), glutaraldehyde 25% (G6275), acetic acid (695092), and crystal violet (C0775). The bicinchoninic acid protein quantitation kit (23225) and the Halt Cocktail with protease and phosphatase inhibitors (1861281) were acquired from ThermoFisherScientific. Fetal bovine serum (26140–079) was from Gibco. The chemiluminescent solution (170–5061) was acquired from Biorad. Rabbit anti‐PTP1B (5311S) and mouse anti‐β actin (3700S) primary antibodies were obtained from Cell Signaling, and secondary antibodies coupled with horseradish peroxidase were from Jackson laboratories (rabbit‐111−035, mouse‐115–035).
Treated cells with compounds were washed twice with 1 mL of PBS, and protein was extracted using 500 µL of a buffer solution containing 10% sodium deoxycholate in 10% TEAB, supplemented with a protease and phosphatase inhibitor cocktail. The extracts were heated to 80 °C for 5 min and disaggregated through passages with an insulin syringe. The cell extracts were centrifuged at 15,000 rpm for 15 min at 4 °C, and the supernatant was collected. Protein quantification was performed using the bicinchoninic acid assay method, and aliquots were prepared for western blotting. SDS/PAGE was conducted, and proteins were transferred onto a nitrocellulose membrane. The membrane was then blocked with 10% skimmed milk in TBST for 1 h and incubated overnight with primary antibodies (1:400 dilution). Secondary antibodies coupled to horseradish peroxidase were diluted 1:2000, and membranes were incubated for 1 h. The blots were documented using the ChemiDoc MP (Bio‐Rad), and densitometric analysis was performed using ImageJ (U.S. National Institutes of Health). Statistical analyses were carried out using GraphPad Prism 8.0.

[9] = ± S.D, assessed up to 100 μM, read-out: TCPTP IC50

SMILES: CC1(C)[C@@H](O)CC[C@]2(C)[C@H]3C(=O)C=C4[C@H]5C[C@@](C)(C(=O)O)CC[C@]5(C)CC[C@@]4(C)[C@]3(C)CC[C@@H]12 [18α‐GA, 18α‐glycyrrhetinic acid]
IC50 [1]: > 100 µM | TCPTP inhibition (in words) [1]: do not inhibit TCPTP | type of inhibition against hPTP1B1−322 [2]: competitive inhibition | IC50 [2]: 10.4 µM | Ki [2]: 3.17 µM | Inhibition type [3]: uncompetitive inhibition | K m [3]: 2110 ± 680 µM | V max [3]: 1.94 ± 0.54 mM/min

SMILES: CC1(C)[C@@H](O)CC[C@]2(C)[C@H]3C(=O)C=C4[C@@H]5C[C@@](C)(C(=O)O)CC[C@]5(C)CC[C@@]4(C)[C@]3(C)CC[C@@H]12 [18β‐GA, 18β‐glycyrrhetinic acid]
IC50 [1]: > 100 µM | TCPTP inhibition (in words) [1]: do not inhibit TCPTP | type of inhibition against hPTP1B1−322 [2]: competitive inhibition | IC50 [2]: 26.1 µM | Ki [2]: 16.2 µM | Inhibition type [3]: uncompetitive inhibition | K m [3]: 2830 ± 960 µM | V max [3]: 3.13 ± 0.94 mM/min

SMILES: CC1(C(=O)O)CCC2(C)CCC3(C)C(=CCC4C5(C)Cc6c([nH]c7ccc(C(F)(F)F)cc67)C(C)(C)C5CCC43C)C2C1 (stereo not drawn) [Compound 3a]
IC50 [1, 9]: > 100 µM | potency relative to 18α‐GA ([4]; hPTP1B1–400): half as potent | IC50 [4]: 4.44 ± 0.22 µM

SMILES: CC1(C(=O)O)CCC2(C)CCC3(C)C(=CCC4C5(C)Cc6c([nH]c7ccc(C(F)(F)F)cc67)C(C)(C)C5CCC43C)C2C1 (stereo not drawn) [Compound 3b]
IC50 [1, 9]: > 100 µM | Ki [3]: 1.16 ± 0.13 µM | Inhibition type [3]: uncompetitive inhibition | K m [3]: 530 ± 80 µM | V max [3]: 0.63 ± 0.06 mM/min | IC50 [4]: 2.84 ± 0.26 µM

SMILES: [Na+].[Na+].[Na+].[O]=[V]([O-])([O-])[O-] [SOV, sodium orthovanadate]
TCPTP inhibition (in words) [1]: inhibited both PTP1B and TCPTP | type of PTP1B inhibition [7]: nonselective, competitive, and reversible inhibitor

SMILES: Cc1ccc(C(=O)Nc2ccc(S(=O)(=O)O)c3cc(S(=O)(=O)O)cc(S(=O)(=O)O)c23)cc1NC(=O)c1cccc(NC(=O)Nc2cccc(C(=O)Nc3cc(C(=O)Nc4ccc(S(=O)(=O)O)c5cc(S(=O)(=O)O)cc(S(=O)(=O)O)c45)ccc3C)c2)c1 [SU, suramin]
type of PTP1B inhibition [7]: competitive and reversible inhibitor

SMILES: C[C@H]1[C@H](C)CC[C@]2(C(=O)O)CC[C@]3(C)C(=CC[C@@H]4[C@@]5(C)CC[C@H](O)C(C)(C)[C@@H]5CC[C@]43C)[C@H]12 [UA, ursolic acid]
IC50 [1]: > 100 µM | AKT phosphorylation (pAKT) levels [8]: did not demonstrate a notable change | PTP1B levels [8]: neither metformin, ursolic acid, nor GA derivatives significantly reduced PTP1B levels

SMILES: CN(C)C(=N)N=C(N)N [metformin]
AKT phosphorylation (pAKT) levels [8]: significant increase | PTP1B levels [8]: neither metformin, ursolic acid, nor GA derivatives significantly reduced PTP1B levels

Now from value to compound, other results behind:

IC50 [1, 9]: > 100 µM | IC50 [4]: 2.05 ± 0.09 µM
SMILES: Cc1ccc(-n2ncc3c2C(C)(C)C2CCC4(C)C(CC=C5C6CC(C)(C(=O)O)CCC6(C)CCC54C)C2(C)C3)cc1 (stereo not drawn) [Compound 5a]

IC50 [1, 9]: > 100 µM | IC50 [4]: 2.54 ± 0.05 µM
SMILES: Cc1ccc(-n2ncc3c2C(C)(C)C2CCC4(C)C(CC=C5C6CC(C)(C(=O)O)CCC6(C)CCC54C)C2(C)C3)cc1 (stereo not drawn) [Compound 5b]

IC50 [5]: 31.6 ± 0.88 µM | IC50 [1, 9]: > 100 µM | Ki [3]: 0.22 µM and 0.224 µM | Inhibition type [3]: uncompetitive inhibition | K m [3]: 1420 ± 320 µM | V max [3]: 1.54 ± 0.28 mM/min | IC50 [4]: 1.57 ± 0.04 µM
SMILES: Cc1ccc(-n2ncc3c2C(C)(C)C2CCC4(C)C(C(=O)C=C5C6CC(C)(C(=O)O)CCC6(C)CCC54C)C2(C)C3)cc1 (stereo not drawn) [Compound 5c]
HepG2 cell viability [6]: No significant differences; also recorded: did not compromise HepG2 cell viability
